# Assay: Metabolic stability in human liver microsomes at […] in presence of NADPH assessed as intrinsic clearance
# Assay type: ADME, Microsome
# Details: read-out: CLH
compound,measurement,value
CC(C)[C@H](Nc1cc(-c2ccc3ccn(C)c3c2)c2nccnc2c1)c1cccnc1,microsomal CLint,85 µL/min/mg

# Reference: ChEMBL document CHEMBL5050831, “Substituted quinoxaline derivatives as inhibitors of pfkfb” (2019)
